Data set [1] in a line: Clearance and distribution of inhaled tracer in test subjects. Type of data set: in vivo. The source says: Positron emitting ^17F (Eβ^+(max)=1.74 MeV; t½≈64 seconds) has an ideal half life for probing such diverse processes as gray matter cerebral activity or gas-phase reactions on an industrial scale. Because of the very short half life of ^17F, tracers labeled with this isotope such as ^17F labeled fluoromethane provide very short half life cerebral blood flow agents that have important application in PET studies of seizure and other transient brain phenomena. The shorter half life of ^17F with respect to ^15O permits repeat images to be obtained twice as fast with ^17F labeled tracers as compared to ^15O labeled tracers such as water which is presently in wide use as a tracer as described above. The ability to scan twice as fast using ^17F labeled tracers allows more data to be collected in the same amount of time and should allow more test subjects to be evaluated using instruments that are currently in high demand. Additionally, ^17F labeled tracers show improved signal to noise level ratios over ^15O labeled tracers providing increased sensitivity. ^15O tracers such as ^15O labeled water are usually administered in a manner that is more invasive than are tracers such as ^17F labeled fluoromethane. For example, ^15O labeled tracers are usually administered by injection and arterial measurements are then made from an arterial cannulation. On the other hand, ^17F labeled tracers such as fluoromethane may be administered by having a test subject inhale the tracer, and arterial measurements can be made from exhalations.
FIG. 5 is a gas chromatograph (Porpak Q column; He carrier gas; thermal conductivity detector, electrochemical detector, and positron coincidence radiation detector) showing the radiochemical purity of ^17F labeled fluoromethane produced by the present invention. The radiochemical purity of the ^17F labeled fluoromethane was determined to be 91 percent with only ^17F labeled CF4 from the target as a radiochemical impurity. […] Thus, the presence of CF4 only impacts the dosimetry to the lungs and trachea.

The conditions of data set [2]: cited from earlier work.

Consider `FC(F)(F)F` [CF4], for which the “distribution into blood when inhaled” value in data set [1] (inhaled as tracer impurity, only impacts dosimetry to lungs and trachea) is listed as “stays out of the blood”.

For `[15OH2]` [^15O labeled water], in data set [2] (at high flows the signal is reduced), the permeability surface product result is given as “relatively low”. Further, in data set [2] (usually administered by injection), the “clearance from test subjects” value is listed as “slow to clear”. In the case of `C[17F]` [^17F labeled fluoromethane], in data set [1] (by exhalation), the clearance result is “rapidly cleared by exhalation”. Further, in data set [1] (in vivo), the biological half life result is “quite short”.
